Measured values as given in US20120059009A1, “ANTI-TUMOR AGENT CONTAINING TEGAFUR-GIMERACIL-OTERACIL POTASSIUM COMBINATION DRUG AND OXALIPLATIN” (TAIHO PHARMACEUTICAL CO., LTD., priority 2009, published 2012).
Where two headings read alike, the source gives them in different places.

How the values were obtained:
[1] = test system: human colorectal cancer COL-1; assay: Anti-tumor effect (IR) in human colorectal cancer COL-1 xenograft model; assay type: in vivo, male nude mice (BALB/cA-nu); conditions: in the combination S-1 7 mg/kg, l-OHP 4.2 mg/kg
Experimental: A fragment (about 2 mm diameter) of human colorectal cancer COL-1 was transplanted into the right axilla of each of male nude mice (BALB/cA-nu, 4-week old, purchased from CLEA Japan, Inc.), and the tumor volume ((longer diameter)×(shorter diameter)^2/2) of the mouse was calculated. The mice were allocatedinto groups so that the average tumor volumes of the groups were adjusted to about 220 mm^3 (8 mice/group). Drug administration was started on the next day after the day of grouping (Day 0). […] TSU-68 was orally administered once a day at a dose of 200 or 400 mg/kg/day from Day 1 to Day 28. A group to which no drug was administered was set as a control group. During drug administration, the tumor volume of each mouse was measured every 3 to 4 days, and the relative tumor volume (RTV) and the anti-tumor effect (IR (%)) of each group were calculated by the formulas below. The statistical significance of difference of the anti-tumor effect between drug-administration group and control group was analyzed by the Student's t-test (both sides) using the average RTV value of these groups. A P value of p<0.05 was considered statistically significant. Furthermore, the advantage in anti-tumor effect (augmentation effect) of the S-1/l-OHP/TSU-68 combination group, with respect to each of the control group, the S-1/l-OHP combination group and the TSU-68 single administration group, was statistically analyzed through the IUT test. […] Relative tumor volume (RTV)=(Tumor volume on Day N)/(Tumor volume on Day 1) [F1] Anti-tumor effect (IR(%))=[1−(RTV of drug-administration group)/(RTV of control group)]×100

[2] = test system: metastatic colorectal cancer patients; assay type: in vivo, human
Experimental: The safety of the case where metastatic colorectal cancer patients (9 cases) were subjected to l-OHP and S-1 combination therapy with administration of TSU-68 was examined. In this study, one cycle of the treatment was consisted of 21 days. To each patient, l-OHP was intravenously administered at a dose of 130 mg/m^2 (per body surface area) on Day 1, and S-1 was orally administered, twice a day after meal, at a daily dose (in terms of tegafur) of 70 mg/m^2 (per body surface area) from Day 1 to Day 14. The 7 days from Day 15 to Day 21 were placed as a rest period. TSU-68 was orally administered every day, twice a day after meal, at a daily dose of 400 mg to 800 mg.
The above study was carried out in order to determine the recommended dose (RD) of TSU-68 in the case where l-OHP and S-1 combination therapy, whose efficacy to colorectal cancer had been established, may be carried out in combination with administration of TSU-68, without causing adverse side effects.
The safety was evaluated according to NCI-CTCAE (3rd edition, the National Cancer Institute's Common Terminology Criteria for Adverse Events version 3.0).

For Cc1[nH]c(/C=C2\C(=O)Nc3ccccc32)c(C)c1CCC(=O)O [TSU-68, 3-[2,4-dimethyl-5-[[(Z)-2,3-dihydro-2-oxo-1H-indol-3-ylidene]methyl]-1H-pyrrol-3-yl]propanoic acid], the “IR (%) Day 15” value ([1]; TSU-68 200 mg/kg/day p.o.) was 47.5%, the “IR (%) Day 15” value ([1]; TSU-68 400 mg/kg/day p.o.) was 51.4% and the “IR (%) Day 22” value ([1]; TSU-68 200 mg/kg/day p.o.) was 47.8%. For the same molecule, the “IR (%) Day 22” value ([1]; TSU-68 400 mg/kg/day p.o.) was 46.3%, the “IR (%) Day 29” value ([1]; TSU-68 200 mg/kg/day p.o.) was 49.2% and the “IR (%) Day 29” value ([1]; TSU-68 400 mg/kg/day p.o.) was 52.8%. The “anti-tumor effect, 400 mg group versus 800 mg group” value ([2]; TSU-68 400 or 800 mg daily with l-OHP and S-1) was “almost equivalent”, the “dose-limiting toxicity (DLT)” value ([2]; human, in vivo, 21 days) was “dose-limiting toxicity (DLT) including singultus and skin response in the hands and feet (Grade 3) or neutropenia (Grade 2) was observed” and the “recommended dose (RD) of TSU-68 in the combination therapy” value ([2]; human, in vivo, 21 days) was 400 mg. For the same molecule, the “dose-limiting toxicity (DLT)” value ([2]; in vivo) was “no DLT was observed”.
